Several values for one entry are separate records, joined by “and”; a condition that tells them apart may be missing. Identical values can stand only once. Entries after “also recorded” stand apart in the source; their conditions may differ.
Assays:
[1] = tested on: bone marrow-derived macrophages (BMDM); test: Efferocytosis assay with bone marrow-derived macrophages and apoptotic Jurkat cells; format: cell-based, mouse; conditions: 10 μM, 6 h before assay
Method: Male C57BL6/j wild-type or Napepld^−/− mice were euthanized with isoflurane and hind legs were removed. Marrow was flushed from femurs and tibias using DMEM containing 4.5 g/L glucose and a 26-gauge needle. Cell suspensions were passed over a 40-μm filter, centrifuged at 500×g, and resuspended in 50 ml of DMEM containing 4.5 g/L glucose, 20% L-cell conditioned media, 10% heat-inactivated FBS, and 1% penicillin/streptomycin. 10 ml of cell suspension was plated into each of five 100-mm dishes and incubated for four days at 37° C. and 5% CO2. On day four, non-adherent cells and debris were aspirated from the plates and replaced with fresh media. After 7 days of differentiation, cells were harvested for use in experiments.
Assays were performed according to previously described protocols. See e.g., Doran et al. J. Clin. Invest. 127(11): 4075-4089 (2017); Proto et al., Immunity 49(4): 666-677 (2018). Bone marrow-derived macrophages were seeded at 0.25×10^6 cells/well in a non-tissue culture-treated 24-well plate and allowed to adhere overnight. Macrophages were treated with various compounds at a final concentration of 10 μM or DMSO as a vehicle for 6 hours prior to each experiment. Jurkat cells were exposed to UV light (254 nm) for 5 minutes to induce apoptosis and then incubated in a 37° C. incubator with 5% CO2 for 2 hours. Surveillance staining of these cells routinely yielded approximately 80-90% apoptosis (Annexin V+) using this method. Apoptotic Jurkat cells were labeled with either CellVue Claret (Millipore Sigma) or Cell Trace Violet (Invitrogen) per the manufacturer's instructions. After staining, cells were resuspended in macrophage medium at a density of […] and 500 μL of this suspension was added to the drug-containing media on the macrophages to achieve a cell ratio of 3:1 Jurkats: macrophages. After incubating for 45 minutes at 37° C. and 5% CO2, the medium was aspirated, and the macrophages were gently washed twice with PBS to remove unbound apoptotic cells. Macrophages were then removed from the plate using Cell Stripper (Sigma), washed, resuspended in staining buffer consisting of 2% FBS in PBS with 2 mM EDTA, and blocked with anti-mouse CD16/32 antibodies for 15 minutes on ice. After blocking, cells were pelleted and resuspended with F4/80. Cells were incubated for 45 minutes on ice in the dark, then washed and resuspended in staining buffer for analysis. Cells were analyzed using an Attune NxT cytometer (Thermo Fisher) and data were analyzed using FlowJo software to quantify the proportion of F4/80^+ macrophages that co-stained for apoptotic cells (% efferocytosis).

[2] = biological target: T1, recombinant mouse NAPE-PLD (Mus musculus, UniProt Q8BH82); test: In vitro competition assay (LEI-401, VU233, VU534) on recombinant mouse Nape-pld; format: biochemical
T1 construct: hexahistidine (His6) (C); made in house; host or cells: E. coli
T1 sequence (Q8BH82 1-396): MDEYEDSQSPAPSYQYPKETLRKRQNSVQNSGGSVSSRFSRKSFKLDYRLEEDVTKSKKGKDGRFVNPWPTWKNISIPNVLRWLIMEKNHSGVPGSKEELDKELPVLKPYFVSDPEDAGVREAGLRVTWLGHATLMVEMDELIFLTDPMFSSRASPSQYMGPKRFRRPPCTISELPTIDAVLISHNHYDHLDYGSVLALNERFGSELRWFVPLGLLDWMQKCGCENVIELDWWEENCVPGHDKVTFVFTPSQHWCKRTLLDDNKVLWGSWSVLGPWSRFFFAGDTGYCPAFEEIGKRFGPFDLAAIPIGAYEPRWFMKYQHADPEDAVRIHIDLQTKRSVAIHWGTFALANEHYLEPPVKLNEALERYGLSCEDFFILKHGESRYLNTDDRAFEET
Method: A similar in vitro fluorescence Nape-pld activity assay was used for LEI-401 and VU233 competition assays except that this assay was performed using black-walled clear-bottom 96-well plates with 3.5 μM PED-A1 and no N-palmitoyl-dioleoyl-PE used as substrate and read in a BioTek Synergy H1 plate reader with the slope of the fluorescence signal from 0-4 min (linear phase) used as the assay readout. LEI-401, VU233, and VU534 were incubated for 1 h prior to addition of PED-A1. The Michaelis-Menten study used this same assay except with graded concentration of flame-NAPE.

[3] = biological target: T2, Fatty Acid Amide Hydrolase (FAAH) (Homo sapiens, UniProt O00519); test: FAAH activity assay (Cayman Chemicals); format: biochemical; conditions: Table 3; 33 μM
T2 construct: purchased Cayman Chemicals
T2 sequence (O00519 1-579): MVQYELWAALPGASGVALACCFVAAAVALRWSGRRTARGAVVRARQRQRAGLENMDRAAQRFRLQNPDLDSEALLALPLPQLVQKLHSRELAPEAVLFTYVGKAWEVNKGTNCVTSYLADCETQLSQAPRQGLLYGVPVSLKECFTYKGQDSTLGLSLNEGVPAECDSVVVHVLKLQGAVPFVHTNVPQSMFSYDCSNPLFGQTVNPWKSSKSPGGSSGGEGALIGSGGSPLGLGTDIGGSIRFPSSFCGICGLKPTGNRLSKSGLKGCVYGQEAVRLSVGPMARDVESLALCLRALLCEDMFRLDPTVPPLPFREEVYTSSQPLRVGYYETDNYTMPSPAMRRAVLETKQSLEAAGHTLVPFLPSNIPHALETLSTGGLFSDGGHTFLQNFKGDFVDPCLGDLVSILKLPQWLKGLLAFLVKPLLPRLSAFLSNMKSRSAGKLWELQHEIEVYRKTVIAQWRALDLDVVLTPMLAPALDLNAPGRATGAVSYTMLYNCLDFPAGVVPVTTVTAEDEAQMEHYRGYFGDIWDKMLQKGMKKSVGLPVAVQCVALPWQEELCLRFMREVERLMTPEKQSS
Method: Concentration response curves were plotted for VU534 for the enzymes fatty acid amide hydrolase (FAAH) and soluble epoxide hydrolase (sEH).
The fluorescence interference assay was performed using the same method as the HTS assay, but with BODIPY-FL C5 (Thermo Fisher Scientific) used in place of PED-A1. sEH and FAAH activity assays were performed according to the manufacturer's specifications (Cayman Chemicals).

[4] = tested on: HepG2 human hepatocytoma cells; test: Cytotoxicity (MTT) in HepG2 cells; format: cell-based; conditions: Table 3; 33 μM
Method: (§1) Cytotoxicity was measured using MTT as previously described except that the studies used 96-well plates with 100 μL of 0.3 mg/mL MTT solution was added after 24 h of treatment and then replaced after 3 h with 0.1 M HCl in isopropanol. See Aggarwal et al., J. Biol. Chem. 295(21): 7289-7300 (2020). Viability was expressed as percent absorbance at 560 nm relative to vehicle controls.

[5] = tested on: RAW264.7 mouse macrophages; test: Cytotoxicity (MTT) in RAW264.7 macrophages; format: cell-based; conditions: Table 3; 33 μM
Method: as §1

[6] = biological target: T3, NAPE-PLD activity of HepG2 cells (Homo sapiens, UniProt Q6IQ20); test: Cell-based NAPE-PLD activity in HepG2 cells (flame-NAPE); conditions: 10 μM
T3 construct: endogenous in cells; host or cells: HepG2
T3 sequence (Q6IQ20 whole entry): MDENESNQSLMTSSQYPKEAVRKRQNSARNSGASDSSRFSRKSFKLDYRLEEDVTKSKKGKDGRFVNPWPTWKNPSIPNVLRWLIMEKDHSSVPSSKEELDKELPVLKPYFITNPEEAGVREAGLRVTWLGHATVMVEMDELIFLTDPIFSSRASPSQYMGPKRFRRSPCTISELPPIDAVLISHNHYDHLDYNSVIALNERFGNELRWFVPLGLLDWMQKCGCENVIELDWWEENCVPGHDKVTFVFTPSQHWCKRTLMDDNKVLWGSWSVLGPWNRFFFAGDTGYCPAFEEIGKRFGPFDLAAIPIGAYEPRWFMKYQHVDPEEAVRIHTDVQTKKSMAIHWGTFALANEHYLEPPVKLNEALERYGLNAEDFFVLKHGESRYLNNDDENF
Method: In vitro models of the hepatic steatosis of non-alcoholic fatty liver disease (NAFLD) are well-established, with the primary method being incubation of primary human hepatocytes or hepatocyte cell lines such as HepG2, HuH7, HepaRG, with oleic acid and palmitic acid for 24 to 48 h, then measuring the resulting steatosis, lipid peroxidation, apoptosis, and inflammatory gene expression. Using flame-NAPE to measure NAPE-PLD activity in the human hepatoma HepG2 cell line, the experimental data confirmed that VU534 activated NAPE-PLD in human cells (AC50 940 nM; max % bA 155%). Bithionol (10 μM) reduced HepG2 flame-NAPE hydrolysis by >67%.
(§2) NAPE-PLD activity was measured in cells as previously described, except that FluoroBrite DMEM (Gibco A1896701) was used as media. See Zarrow et al., J. Lipid Res. 63(1): 100156 (2022). For RAW264.7 assays, PED-A1 (3.6 μM final) was used as the substrate with 10 μM orlistat added to inhibit PLA1 activity, while for HepG2 cells, flame-NAPE was used (with no orlistat added).

[7] = biological target: T1, recombinant mouse NAPE-PLD; test: In vitro fluorescence NAPE-PLD activity assay (HTS/CRC) with recombinant mouse NAPE-PLD and PED-A1; format: biochemical
Method: Using the fluorogenic NAPE substrate, PED-A1, and recombinant mouse NAPE-PLD (rNAPE-PLD), an in vitro high-throughput (HTS) assay was conducted to screen ˜40,000 compounds for their ability to modulate NAPE-PLD activity. The HTS assay enabled the detection of both NAPE-PLD activators and inhibitors. […] Initial structure-activity response studies with the top hits identified benzothiazole phenylsulfonyl-piperidine carboxamide analogs (BT-PSP analogs) as lead compounds for NAPE-PLD activators (Table 1). The lead BT-PSP analog identified, VU534, induces 50% of its activation effect on NAPE-PLD at 270 nM (AC50 270 nM), and induces a maximal effect of 195% of basal NAPE-PLD activity (Table 1).
In vitro fluorescence NAPE-PLD activity assays using recombinant NAPE-PLD and either PED-A1 or flame-NAPE as fluorogenic substrate were performed as previously described except with small modifications as noted below. See Aggarwal et al., J. Biol. Chem. 295(21): 7289-7300 (2020); Zarrow et al., J. Lipid Res. 63(1): 100156 (2022).
For the HTS assays, test compounds were incubated with recombinant enzyme for 1 h prior to adding PED-A1 (final 0.4 μM) mixed with N-palmitoyl-dioleoyl-PE (final 3.6 μM) to adjust for the high sensitivity of the Panoptic instrument (WaveFront Biosciences). Assays used black-wall, clear-bottom, non-sterile, and non-treated 384-well plates (Greiner Bio-One 781906). The assay was read in kinetic fluorescence mode on the Panoptic instrument for 4 min and the slope of the signal from 30-100 s was used for analysis. A total of 39,328 compounds from the Vanderbilt Discovery Collection were tested, each at 10 μM. The tested compounds were chosen to represent a structurally diverse selection from the full library. Each 384-well plate included 320 test compound wells and 64 control wells. Unlike previous pilot screening assays, bithionol (10 μM final) was used in place of lithocholic acid (100 μM final) as the inhibitor control. Before performing high-throughput screening, a checkerboard assay was performed to validate the assay parameters. This yielded a Z′ score of 0.676. Z′ scores were also calculated for each plate during screening, and plates with scores <0.5 were re-run. The average Z′ across all screening plates was 0.52, and the total hit rate was 3.6%. B-scores were calculated from the initial slopes across each plate using WaveGuide software (WaveFront Biosiences). Modulator hits were defined as compounds with absolute B-scores of 3 or higher. The number of compounds in various B-score ranges were as follows: […], 12 compounds; −10 to −5, 221 compounds; −5 to −3, 770 compounds; −3 to 3, 37924 compounds; 3 to 4, 314 compounds; 4 to 6, 70 compounds; 6 to 10, 15 compounds. Activator hits with B-scores of >3 were selected for the replication assay and a selection of analogs of the activators.
Concentration response curve (CRC) experiments used the same assay conditions as the HTS assay, except that graded concentrations of each test compound were used, with total amount of vehicle (DMSO) kept constant. CRC experiments with purified recombinant mouse NAPE-PLD were performed on two separate days, with values from each day normalized to vehicle only controls on same plate, and then all normalized values from both days averaged together. CRC experiments with human NAPE-PLD represent value from only a single day, due to limited amounts of this recombinant enzyme.

[8] = biological target: T4, NAPE-PLD activity in primary BMDMϕ (Mus musculus, UniProt Q8BH82); test: NAPE-PLD activity in primary bone marrow derived macrophages; format: cell-based; conditions: VU534 at 10 μM (FIG. 5)
T4 construct: endogenous in cells; host or cells: primary bone-marrow-derived macrophages (C57BL6/j mice)
T4 sequence (Q8BH82 1-396): T1 sequence (Q8BH82 1-396)

[9] = biological target: T5, NAPE-PLD activity of RAW264.7 macrophages (Mus musculus, UniProt Q8BH82); test: Cell-based NAPE-PLD activity in RAW264.7 macrophages (PED-A1 with orlistat); conditions: with 20 μM VU534 (FIG. 17C)
T5 construct: endogenous in cells; host or cells: RAW264.7
T5 sequence (Q8BH82 1-396): T1 sequence (Q8BH82 1-396)
Method: as §2

O=C(O)CCCCCCCCCCCNC(=O)NC12CC3CC(CC(C3)C1)C2 [AUDA, 12-[[(tricyclo[3.3.1.13,7]dec-1-ylamino)carbonyl]amino]-dodecanoic acid, reference compound]
effect on efferocytosis by wild-type BMDM [1]: Neither AUDA nor TPPU significantly enhanced efferocytosis

O=C(NCC1CC1)c1cc(N2CC[C@H](O)C2)nc(N2CCC[C@@H](c3ccccc3)C2)n1 [LEI-401, reference compound]
inhibition of mouse NAPE-PLD activity at 100 μM ([2]; 100 μM): nearly complete inhibition | inhibition of mouse NAPE-PLD activity ([2]; graded concentrations (FIG. 19C)): inhibited mouse NAPE-PLD activity in a concentration-dependent manner

CCC(=O)N1CCC(NC(=O)Nc2ccc(OC(F)(F)F)cc2)CC1 [TPPU, N-[1-(1-Oxopropyl)-4-piperidinyl]-N′-[4-(trifluoromethoxy)phenyl]urea, reference compound]
effect on efferocytosis by wild-type BMDM [1]: Neither AUDA nor TPPU significantly enhanced efferocytosis

Cc1cc(F)ccc1S(=O)(=O)N1CCC(C(=O)Nc2nc3c(C)cccc3s2)CC1 [VU212]
Remaining FAAH Activity (33 μM) [3]: 61% and 79% | % HepG2 viability (33 μM) [4]: 66% and 69% | % viability RAW 264.7 (33 μM) [5]: 32% and 56% | In-cell NAPE-PLD activity in HepG2 (10 μM) with PED-A1 or flame-NAPE as substrate ([6]; Table 3): 197% and 268% | EC50 ([7]; Table 3, read-out: In vitro EC50): ~2900 nM | Emax ([7]; Table 3, read-out: In vitro Emax (100% activity is baseline activity of vehicle only)): ~151% | Emax (95% Cl) ([7]; Table 4, maximal efficacy as fold increase in NAPE-PLD activity versus vehicle only): 1.6 (1.5-1.6) fold

Oc1c(Cl)cc(Cl)cc1Sc1cc(Cl)cc(Cl)c1O [bithionol, reference compound]
effect on NAPE-PLD activity in primary BMDM [8]: inhibits NAPE-PLD activity | effect on efferocytosis by wild-type BMDM [1]: markedly reduced efferocytosis | effect on efferocytosis by wild-type BMDM ([1]; listed as Bith): reduced efferocytosis | reduction of HepG2 flame-NAPE hydrolysis [6]: > 67% | effect on increase in RAW264.7 NAPE-PLD activity induced by 20 μM VU534 [9]: blocked in a concentration-dependent manner; also recorded: blocks increased Nape-pld activity
